Measurements as given in patent US8841073B2, “Methods for identifying RNA segments bound by RNA-binding proteins or ribonucleoprotein complexes” (The Rockefeller University, priority 2008, dated 2014).
{NH2} = code of the source, not defined here; [4sU] = 4-thiouridine

Test system: most abundant miRNAs in HEK293 cells
Assay: miRNA inhibition by cocktail of 2'-O-methyl antisense oligoribonucleotides in HEK293 cells; seed match depletion/enrichment in down-/up-regulated transcripts (Affymetrix arrays)
Format: cell-based, human
Settings: antisense cocktail vs mock
Method: All miRNAs are assumed to have U at position 1. p-values for 4 types of seeds, indicated below, were tested.
miRNAs are predominantly localized to the cytoplasm although a smaller fraction can be detected in nuclear extracts (Hwang et al., 2007; Meister et al., 2004; Pena et al., 2009; Robb et al., 2005; Weinmann et al., 2009). Our CCRs correspond to 84% exonic, 14% intronic, and 2% not assigned transcribed regions. This distribution is consistent with the predominant cytoplasmic function of miRNAs. Of the exonic CCRs, 50% distributed to the CDS, 46% to the 3′ UTR, and 4% to the 5′ UTR of mRNAs, with a specific enrichment in the 3′UTRs relative to what is expected based on the relative lengths of different transcript regions (FIG. 6D). The identification of such a large number of miRNA binding sites within the CDS was unexpected, because miRNA are believed to predominantly act on 3′ UTRs (Bartel, 2009), with a few reports providing evidence for miRNA-binding to 5′ UTR or CDS (Forman et al., 2008; Lytle et al., 2007; Orom et al., 2008; Tay et al., 2008). In order to determine if CCR-containing transcripts were indeed subject to miRNA-dependent regulation, we inhibited 25 of the most abundant miRNAs in HEK293 cells (FIG. 5C) with a cocktail of 2′-O-methyl-modified antisense oligoribonucleotides (FIG. 7A and see FIG. 28A-C for the efficiency of the individual antisense oligoribonucleotide). The change in relative mRNA abundance before and after miRNA inhibition was recorded by Affymetrix whole transcriptome array analysis.
miRNA duplexes and 2′-O-methyl oligoribonucletide transfections of HEK293 TREx Flp-In cells were carried out using Lipofectamine RNAiMAX (Invitrogen). Total RNA was isolated by TRIZOL RNA extraction. The RNA was further purified and Human Genome U133 Plus 2.0 Array (Affymetrix) analyses were performed as described previously (Landthaler et al., 2008).
CEL files of mRNA profiles from miRNA/2′O-methyl oligonucleotide and mocktransfected cell were loaded into the R software using the BioConductor affy package (Gentleman et al., 2004). The transcript probe set intensities were background-corrected, adjusted for non-specific binding and quantile normalized with the GCRMA algorithm (Wu, 2006). Probe sets with more than 6 of the 11 probes mapping ambiguously to the genome were discarded, as were probe sets that mapped to multiple genes. We then collected all probe sets matching a given gene, and we computed the logarithm of gene-level expression as the average of the log-intensity of probe sets mapping to that gene. For sequence analyses we also selected a representative transcript for each gene. This was the Genbank transcript with median 3′ UTR length corresponding to that gene. In total this procedure gave us expression measurements for 16,063 genes (and representative transcripts). The difference between the log-expression levels of a gene in samples treated with a cocktail of 2′-O-methyl oligoribonucleotides and mock transfected cells was taken as a measure of transcript stabilization upon miRNA inhibition.

Row | Substance | efficiency of the individual antisense oligoribonucleotide (inhibition of cognate miRNA)
1 | let-7a: 2'-O-methyl antisense oligoribonucleotide AACUAUACAACCUACUACCUCA-NH2 (SEQ ID NO: 42) (all 2'-O-methyl, 3' {NH2}, backbone not given here) | Marginal
2 | miR-10a: 2'-O-methyl antisense oligoribonucleotide CACAAAUUCGGAUCUACAGGGUA-NH2 (SEQ ID NO: 43) (all 2'-O-methyl, 3' {NH2}, backbone not given here) | did not seem to have inhibited their cognate miRNAs
3 | miR-15a: 2'-O-methyl antisense oligoribonucleotide CGCCAAUAUUUACGUGCUGCUA (SEQ ID NO: 44) (all 2'-O-methyl, backbone not given here) | Worked
4 | miR-17: 2'-O-methyl antisense oligoribonucleotide CUACCUGCACUGUAAGCACUUUG (SEQ ID NO: 47) (all 2'-O-methyl, backbone not given here) | Worked
5 | miR-18a: 2'-O-methyl antisense oligoribonucleotide CUAUCUGCACUAGAUGCACCUUA-NH2 (SEQ ID NO: 48) (all 2'-O-methyl, 3' {NH2}, backbone not given here) | Worked
6 | miR-19a: 2'-O-methyl antisense oligoribonucleotide UCAGUUUUGCAUAGAUUUGCACA (SEQ ID NO: 49) (all 2'-O-methyl, backbone not given here) | Worked
7 | miR-21: 2'-O-methyl antisense oligoribonucleotide UCAACAUCAGUCUGAUAAGCUA (SEQ ID NO: 53) (all 2'-O-methyl, backbone not given here) | Marginal
8 | miR-27a: 2'-O-methyl antisense oligoribonucleotide AACUAUACAAUCUACUACCUCA (SEQ ID NO: 55) (all 2'-O-methyl, backbone not given here) | did not seem to have inhibited their cognate miRNAs
9 | miR-30a: 2'-O-methyl antisense oligoribonucleotide CUUCCAGUCGAGGAUGUUUACA-NH2 (SEQ ID NO: 56) (all 2'-O-methyl, 3' {NH2}, backbone not given here) | Worked
10 | miR-92a: 2'-O-methyl antisense oligoribonucleotide ACAGGCCGGGACAAGUGCAAUA (SEQ ID NO: 58) (all 2'-O-methyl, backbone not given here) | Worked
11 | miR-101: 2'-O-methyl antisense oligoribonucleotide UUCAGUUAUCACAGUACUGUA (SEQ ID NO: 60) (all 2'-O-methyl, backbone not given here) | Marginal
12 | miR-103: 2'-O-methyl antisense oligoribonucleotide UCAUAGCCCUGUACAAUGCUGCU (SEQ ID NO: 61) (all 2'-O-methyl, backbone not given here) | Worked
13 | miR-186: 2'-O-methyl antisense oligoribonucleotide AGCCCAAAAGGAGAAUUCUUUG (SEQ ID NO: 63) (all 2'-O-methyl, backbone not given here) | Didn't Work Well
14 | miR-301b: 2'-O-methyl antisense oligoribonucleotide GCUUUGACAAUACUAUUGCACUG (SEQ ID NO: 64) (all 2'-O-methyl, backbone not given here) | Worked
15 | miR-378: 2'-O-methyl antisense oligoribonucleotide CCUUCUGACUCCAAGUCCAGU (SEQ ID NO: 65) (all 2'-O-methyl, backbone not given here) | Marginal

Same assay, conditions: antisense cocktail vs mock, listed as MiR-10a

Row | Substance | efficiency of the individual antisense oligoribonucleotide (inhibition of cognate miRNA)
16 | miR-10a: 2'-O-methyl antisense oligoribonucleotide CACAAAUUCGGAUCUACAGGGUA-NH2 (SEQ ID NO: 43) (all 2'-O-methyl, 3' {NH2}, backbone not given here) | Didn't Work

Same assay, conditions: antisense cocktail vs mock, listed as MiR-27a

Row | Substance | efficiency of the individual antisense oligoribonucleotide (inhibition of cognate miRNA)
17 | miR-27a: 2'-O-methyl antisense oligoribonucleotide AACUAUACAAUCUACUACCUCA (SEQ ID NO: 55) (all 2'-O-methyl, backbone not given here) | Didn't Work

Biological target: T1, recombinant His6-QKI protein (Homo sapiens, UniProt Q96PU8)
T1 construct: His6 (N); made in house; host or cells: E. coli STAR(DE3)
T1 sequence (Q96PU8 1-319 isoform Q96PU8-9): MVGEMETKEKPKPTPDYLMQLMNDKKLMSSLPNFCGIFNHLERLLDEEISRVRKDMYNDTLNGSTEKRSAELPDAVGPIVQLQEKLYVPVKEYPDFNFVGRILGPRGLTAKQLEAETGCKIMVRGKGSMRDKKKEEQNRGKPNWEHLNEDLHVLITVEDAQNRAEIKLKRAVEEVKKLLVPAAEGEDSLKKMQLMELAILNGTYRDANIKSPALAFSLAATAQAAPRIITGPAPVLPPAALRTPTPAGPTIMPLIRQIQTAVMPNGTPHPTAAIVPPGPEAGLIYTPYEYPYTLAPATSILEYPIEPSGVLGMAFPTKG
Assay: Electrophoretic mobility shift assay (gel-shift) with recombinant QKI
Format: binding
Settings: not given
Method: FIG. 11: Electrophoretic mobility shift assay (EMSA) to analyze binding of recombinant QKI to synthetic oligoribonucleotides with a sequence derived from a cluster identified by QKI PURE-CLIP. […] C Mutation of either one of the QKI binding sites (marked with red bars in the RNA-sequence) results in decreased affinity of QKI to the RNA. Mutation of both binding sites leads to complete loss of affinity of QKI to the RNA.
Radiolabeled RNA (1 nM) was incubated with recombinant His6-QKI protein at various concentrations and 100 ng tRNA in 20 μl of 20 mM HEPES-KOH, pH 7.4, 330 mM KCl, 10 mM MgCl2, 0.1 mM EDTA and 0.01% IGEPAL CA630 (Sigma). After addition of 6 μl loading dye (40% glycerol, bromophenol blue in binding buffer), the solution was loaded onto a native 10% acrylamide gel containing 0.5×TBE, running at 200 V for 2 h at room temperature, using 0.5×TBE as running buffer. The protein-bound RNA and the free RNA were quantified using a phosphorimager.

Row | Substance | RNA-binding / affinity to recombinant QKI by gel-shift analysis
18 | U10: synthetic oligoribonucleotide with 4SU at position 3 of the QKI recognition element; GUAUGCCAU(4sU)AACAAAUUCAUUAACAA (SEQ ID NO: 31) (GUAUGCCAUUAACAAAUUCAUUAACAA; RNA, [4sU] at 10, backbone not given here) | unaffected
